Measurements as given in article PMC12543283, “TastepepAI: An artificial intelligence platform for taste peptide de novo design” (PLOS Computational Biology, 2025).
Where “and” joins values, the source holds several entries; their conditions need not be identical. Identical values can stand only once. Ends that are not written are not given here.

Experiments:
[1] = Electronic tongue analysis (Taste-Sensing System SA 402B); parameters: unit not given here; conditions: reference solution 30 mM KCl + 0.3 mM tartaric acid as baseline, first measurement excluded; for Umami: sensor AAE; for Umami / Bitter / Sweet: detection threshold 0, room temperature; for Umami / Bitter / Sour / Salty: four replicates; for Sour: detection threshold -13, room temperature; for Salty: detection threshold -6, room temperature; for Sweet: measured five times
Method in brief: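 Room-temperature electronic-tongue readings with five taste probes, calibrated against a reference of 30 mM KCl and 0.3 mM tartaric acid. Samples at 0.1 mg/mL and 1.0 mg/mL were measured four times, sweetness five times, and the first run was dropped. Detection cut-offs were sour −13, salty −6, others 0.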

[2] = system: human bronchial epithelial cells (BEAS-2B)
[3] = system: human embryonic kidney cells (HEK293T)
[4] = system: human pancreatic ductal epithelial cells (HPNE)
[5] = system: human umbilical vein endothelial cells (HUVEC)

Substance: KGGEV [TaPep68]
- Umami ([1]; peptide 0.1 mg/mL): 0.75
- Umami ([1]; peptide 1 mg/mL): -4.79
- Bitter ([1]; sensor C00, peptide 0.1 mg/mL): 7.39
- Bitter ([1]; sensor C00, peptide 1 mg/mL): 3.94
- Sour ([1]; sensor CA0, peptide 0.1 mg/mL): -1.26
- Sour ([1]; sensor CA0, peptide 1 mg/mL): 12.33
- Salty ([1]; sensor CT0, peptide 0.1 mg/mL): -15.75
- Salty ([1]; sensor CT0, peptide 1 mg/mL): 12.33
- Sweet ([1]; sensor GL1, peptide 0.1 mg/mL): 3.06
- Sweet ([1]; sensor GL1, peptide 1 mg/mL): -4.04
- Average cell viability, BEAS-2B [2]: 104.35
- Cell viability, BEAS-2B, Data1 [2]: 106.68
- Cell viability, BEAS-2B, Data2 [2]: 113.46
- Cell viability, BEAS-2B, Data3 [2]: 92.92
- Average cell viability, HEK293T [3]: 100.03
- Cell viability, HEK293T, Data1 [3]: 100.79
- Cell viability, HEK293T, Data2 [3]: 94.92
- Cell viability, HEK293T, Data3 [3]: 104.38
- Average cell viability, HPNE [4]: 94.11
- Cell viability, HPNE, Data1 [4]: 97.24
- Cell viability, HPNE, Data2 [4]: 99.23
- Cell viability, HPNE, Data3 [4]: 85.86
- Average cell viability, HUVEC [5]: 103.75
- Cell viability, HUVEC, Data1 [5]: 103.54
- Cell viability, HUVEC, Data2 [5]: 113.44
- Cell viability, HUVEC, Data3 [5]: 94.28

Substance: KGYEAV [TaPep5]
- Umami ([1]; peptide 0.1 mg/mL): 1.93
- Umami ([1]; peptide 1 mg/mL): -5.17
- Bitter ([1]; sensor C00, peptide 0.1 mg/mL): 7.90
- Bitter ([1]; sensor C00, peptide 1 mg/mL): bitterness suppression and -0.10
- Sour ([1]; sensor CA0, peptide 0.1 mg/mL): -4.04
- Sour ([1]; sensor CA0, peptide 1 mg/mL): 12.61
- Salty ([1]; sensor CT0, peptide 0.1 mg/mL): -18.14
- Salty ([1]; sensor CT0, peptide 1 mg/mL): 14.26
- Sweet ([1]; sensor GL1, peptide 0.1 mg/mL): 6.12
- Sweet ([1]; sensor GL1, peptide 1 mg/mL): -5.63
- Average cell viability, BEAS-2B [2]: 113.59
- Cell viability, BEAS-2B, Data1 [2]: 105.38
- Cell viability, BEAS-2B, Data2 [2]: 117.75
- Cell viability, BEAS-2B, Data3 [2]: 117.65
- Average cell viability, HEK293T [3]: 97.32
- Cell viability, HEK293T, Data1 [3]: 101.17
- Cell viability, HEK293T, Data2 [3]: 95.30
- Cell viability, HEK293T, Data3 [3]: 95.49
- Average cell viability, HPNE [4]: 113.38
- Cell viability, HPNE, Data1 [4]: 117.83
- Cell viability, HPNE, Data2 [4]: 109.17
- Cell viability, HPNE, Data3 [4]: 113.13
- Average cell viability, HUVEC [5]: 105.38
- Cell viability, HUVEC, Data1 [5]: 115.43
- Cell viability, HUVEC, Data2 [5]: 105.06
- Cell viability, HUVEC, Data3 [5]: 95.64

Substance: KNDESVD [TaPep48]
- Umami ([1]; peptide 0.1 mg/mL): 1.19
- Umami ([1]; peptide 1 mg/mL): -4.97
- Bitter ([1]; sensor C00, peptide 0.1 mg/mL): 7.92
- Bitter ([1]; sensor C00, peptide 1 mg/mL): 4.06
- Sour ([1]; sensor CA0, peptide 0.1 mg/mL): -2.20
- Sour ([1]; sensor CA0, peptide 1 mg/mL): 12.29
- Salty ([1]; sensor CT0, peptide 0.1 mg/mL): -19.00
- Salty ([1]; sensor CT0, peptide 1 mg/mL): 9.10
- Sweet ([1]; sensor GL1, peptide 0.1 mg/mL): 5.24
- Sweet ([1]; sensor GL1, peptide 1 mg/mL): -3.88
- Average cell viability, BEAS-2B [2]: 98.21
- Cell viability, BEAS-2B, Data1 [2]: 105.18
- Cell viability, BEAS-2B, Data2 [2]: 91.23
- Cell viability, BEAS-2B, Data3 [2]: 98.21
- Average cell viability, HEK293T [3]: 103.91
- Cell viability, HEK293T, Data1 [3]: 103.15
- Cell viability, HEK293T, Data2 [3]: 102.59
- Cell viability, HEK293T, Data3 [3]: 105.99
- Average cell viability, HPNE [4]: 102.66
- Cell viability, HPNE, Data1 [4]: 87.85
- Cell viability, HPNE, Data2 [4]: 109.32
- Cell viability, HPNE, Data3 [4]: 110.82
- Average cell viability, HUVEC [5]: 107.58
- Cell viability, HUVEC, Data1 [5]: 110.24
- Cell viability, HUVEC, Data2 [5]: 102.34
- Cell viability, HUVEC, Data3 [5]: 110.16

Substance: KTYSA [TaPep49]
- Umami ([1]; peptide 0.1 mg/mL): 0.96
- Umami ([1]; peptide 1 mg/mL): -3.34
- Bitter ([1]; sensor C00, peptide 0.1 mg/mL): 7.26
- Bitter ([1]; sensor C00, peptide 1 mg/mL): 2.53
- Sour ([1]; sensor CA0, peptide 0.1 mg/mL): -7.10
- Sour ([1]; sensor CA0, peptide 1 mg/mL): 8.30
- Salty ([1]; sensor CT0, peptide 0.1 mg/mL): -15.59
- Salty ([1]; sensor CT0, peptide 1 mg/mL): 11.00
- Sweet ([1]; sensor GL1, peptide 0.1 mg/mL): 7.69
- Sweet ([1]; sensor GL1, peptide 1 mg/mL): -3.73
- Average cell viability, BEAS-2B [2]: 100.60
- Cell viability, BEAS-2B, Data1 [2]: 99.20
- Cell viability, BEAS-2B, Data2 [2]: 96.41
- Cell viability, BEAS-2B, Data3 [2]: 106.18
- Average cell viability, HEK293T [3]: 96.97
- Cell viability, HEK293T, Data1 [3]: 99.94
- Cell viability, HEK293T, Data2 [3]: 94.54
- Cell viability, HEK293T, Data3 [3]: 96.44
- Average cell viability, HPNE [4]: 94.58
- Cell viability, HPNE, Data1 [4]: 82.96
- Cell viability, HPNE, Data2 [4]: 86.76
- Cell viability, HPNE, Data3 [4]: 114.01
- Average cell viability, HUVEC [5]: 102.29
- Cell viability, HUVEC, Data1 [5]: 99.15
- Cell viability, HUVEC, Data2 [5]: 103.94
- Cell viability, HUVEC, Data3 [5]: 103.78

Substance: LGDDLVK [TaPep19]
- Umami ([1]; peptide 0.1 mg/mL): 2.00
- Umami ([1]; peptide 1 mg/mL): -4.34
- Bitter ([1]; sensor C00, peptide 0.1 mg/mL): 7.19
- Bitter ([1]; sensor C00, peptide 1 mg/mL): 3.19
- Sour ([1]; sensor CA0, peptide 0.1 mg/mL): -4.23
- Sour ([1]; sensor CA0, peptide 1 mg/mL): 10.91
- Salty ([1]; sensor CT0, peptide 0.1 mg/mL): -21.50
- Salty ([1]; sensor CT0, peptide 1 mg/mL): 8.70
- Sweet ([1]; sensor GL1, peptide 0.1 mg/mL): 6.20
- Sweet ([1]; sensor GL1, peptide 1 mg/mL): -4.08
- Average cell viability, BEAS-2B [2]: 111.70
- Cell viability, BEAS-2B, Data1 [2]: 111.27
- Cell viability, BEAS-2B, Data2 [2]: 110.77
- Cell viability, BEAS-2B, Data3 [2]: 113.06
- Average cell viability, HEK293T [3]: 106.88
- Cell viability, HEK293T, Data1 [3]: 110.63
- Cell viability, HEK293T, Data2 [3]: 106.37
- Cell viability, HEK293T, Data3 [3]: 103.63
- Average cell viability, HPNE [4]: 100.07
- Cell viability, HPNE, Data1 [4]: 102.93
- Cell viability, HPNE, Data2 [4]: 114.51
- Cell viability, HPNE, Data3 [4]: 82.76
- Average cell viability, HUVEC [5]: 102.69
- Cell viability, HUVEC, Data1 [5]: 92.52
- Cell viability, HUVEC, Data2 [5]: 103.78
- Cell viability, HUVEC, Data3 [5]: 111.76

Substance: LGGDL [TaPep58]
- Umami ([1]; peptide 0.1 mg/mL): 2.07
- Umami ([1]; peptide 1 mg/mL): -4.23
- Bitter ([1]; sensor C00, peptide 0.1 mg/mL): 7.49
- Bitter ([1]; sensor C00, peptide 1 mg/mL): 3.43
- Sour ([1]; sensor CA0, peptide 0.1 mg/mL): -4.24
- Sour ([1]; sensor CA0, peptide 1 mg/mL): 10.37
- Salty ([1]; sensor CT0, peptide 0.1 mg/mL): -21.68
- Salty ([1]; sensor CT0, peptide 1 mg/mL): 10.46
- Sweet ([1]; sensor GL1, peptide 0.1 mg/mL): 7.50
- Sweet ([1]; sensor GL1, peptide 1 mg/mL): -6.69
- Average cell viability, BEAS-2B [2]: 99.93
- Cell viability, BEAS-2B, Data1 [2]: 103.89
- Cell viability, BEAS-2B, Data2 [2]: 90.43
- Cell viability, BEAS-2B, Data3 [2]: 105.48
- Average cell viability, HEK293T [3]: 101.42
- Cell viability, HEK293T, Data1 [3]: 99.84
- Cell viability, HEK293T, Data2 [3]: 107.22
- Cell viability, HEK293T, Data3 [3]: 97.19
- Average cell viability, HPNE [4]: 94.58
- Cell viability, HPNE, Data1 [4]: 94.94
- Cell viability, HPNE, Data2 [4]: 87.85
- Cell viability, HPNE, Data3 [4]: 100.93
- Average cell viability, HUVEC [5]: 99.81
- Cell viability, HUVEC, Data1 [5]: 89.41
- Cell viability, HUVEC, Data2 [5]: 103.78
- Cell viability, HUVEC, Data3 [5]: 106.25
